In brackets after ≈: the same amount, converted by molar mass.

One experiment deals with releasing of lysosome from the neutrocytes of rat. Nature of the experiment: Inhibitory effect against the releasing of lysosome from the neutrocytes of rat. The class given is cell-based. The conditions noted are these: 0.25 h; rat neutrocytes 5×10^5 cells/ml; FMLP 10^-6 M + cytochalasin B 5 μg/ml; 15 minutes; OD550; read-out: 50% inhibitory concentration (IC50), releasing of lysosome. How it is done: Inhibitory effect against the releasing of lysosome from the neutrocytes of rat
The neutrocytes of rat were samples from the abdominal cavity of the reat 16 hours after the administration of 10 ml of 1%-casein solution (physiological saline solution).
Reaction of the releasing of lysosome from the neutrocytes of rat was determined by means of the method described in an article by T. Matsumoto, K. Takeshige and S. Minakami: Biochemical and Biophysical Research Communications, Vol. 88, No. 3, pp. 974-979, (1979).
The neutrocytes being sampled were added to Hank's soluiton so as to make the concentraiton thereof as 5×10^5 cells/ml, and the test compound of indole derivative of the present invention was added thereto to make the test group sample. On the other hand, water was added in place of the indole derivative of the present invention to make the control group sample. Each of the test group sample and the control group sample was subjected to pre-incubation at 37° C. for 1 minute.
As to the stimulating agents, 10^-6 M of FMLP (formylmethionyl leucyl phenylalanine) and 5 μg/ml of cytochalasin B were added to the solution. Thus, obtained mixture of the solution was reacted by incubating for 15 minutes. After the incubation, the mixture of the solution was subjected to centrifugation at 2,000 rpm for 10 minutes. The supernatant (0.2 ml) was admixed with 0.5 ml of 0.1M-acetic acid buffer solution (pH 4.5) in which 0.2 mM of phenolphthalein glucuronic acid was dissolved. Then the resulting mixture of the solutions was reacted at 37° C. for 5 hours by incubation. After the reaction, 1N-NaOH solution was added to the reaction mixture so as to make the pH thereof to pH 8-9, and the optical absorbance of both test group samples and control group samples were determined at 550 nm (OD550).
The 50% inhibitory concentration (IC50) values were obtained by calculating as the ratio of OD550 of the test group samples to that of the control group samples.
`CN1C(=O)C(c2ccccc2)NC(=O)/C1=C/c1c[nH]c2ccccc12` (stereo not drawn) [Compound A-4a, (Z)-6-(indol-3-yl)methylidene-1-methyl-3-phenylpiperazine-2,5-dione]: the IC50 amounted to 35 µg/mL.
In the case of `CC(C)C[C@@H]1NC(=O)/C(=C/c2c[nH]c3ccccc23)N(C)C1=O` [Compound A-4b, (3S,Z)-6-(Indol-3-yl)methylidene-3-isobutyl-1-methylpiperazine-2,5-dione], the IC50 came to 30 µg/mL.
Same read-out and setting: the same measure for `COC1=N[C@@H](CC(C)C)C(=O)N(C)/C1=C\c1c[nH]c2ccccc12` [Compound A-5b, (3S,Z)-6-(Indol-3-yl)methylidene-3-isobutyl-5-methoxy-1-methyl-1,2,3,6-tetrahydropyrazin-2-one]: 25 µg/mL; for `COc1nc(-c2ccccc2)c(=O)n(C)c1Cc1c[nH]c2ccccc12` [Compound A-6a, 6-(indol-3-yl)methyl-5-methoxy-1-methyl-3-phenyl-1,2-dihydropyrazin-2-one]: 30 µg/mL; for `COc1nc(CC(C)C)c(=O)n(C)c1Cc1c[nH]c2ccccc12` [Compound A-6b, 6-(Indol-3-yl)methyl-3-isobutyl-5-methoxy-1-methyl-1,2-dihydropyrazin-2-one]: 30 µg/mL.
Still for that read-out and setting: the figure for `COc1nc(CC(C)C)c(OC)nc1Cc1c[nH]c2ccccc12` [Compound A-19, 3-(Indol-3-yl)methyl-6-isobutyl-2,5-dimethoxypyrazine] is 25 µg/mL.
The same measure, in the same setting: the figure for `COc1nc(CC(C)C)c(OC(C)=O)nc1Cc1c[nH]c2ccccc12` [Compound A-20, 2-Acetoxy-6-(indol-3-yl)methyl-3-isobutyl-5-methoxypyrazine] is 20 µg/mL; for `CCOc1nc(CC(C)C)c(OCC)nc1Cc1c[nH]c2ccccc12` [Compound A-23, 3-(Indol-3-yl)methyl-2,5-diethoxy-6-isobutylpyrazine] it is 50 µg/mL; for `CC(C)Cc1nc(Cl)c(Cc2c[nH]c3ccccc23)nc1Cl` [Compound A-26, 3-(Indol-3-yl)methyl-2,5-dichloro-6-isobutylpyrazine] it is 10 µg/mL.
Consider `CC(C)Cc1cnc(Cc2c[nH]c3ccccc23)cn1` [Compound A-27, 2-(indol-3-yl)methyl-5-isobutylpyrazine], for which the IC50 was 25 µg/mL.
On to `O=C1CN(O)C(=O)[C@H](Cc2c[nH]c3ccccc23)N1` [Compound A-29c, (3S)-1-Hydroxy-3-(indol-3-yl)methylpiperazine-2,5-dione], for which the IC50 amounted to 50 µg/mL.
Same read-out and setting: the figure for `CC(C)/C=c1\[nH]c(=O)/c(=C/c2c[nH]c3ccccc23)[nH]c1=O` [Compound A-34, (Z,Z)-3-(indol-3-yl)methylidene-6-isobutylidenepiperazine-2,5-dione] is 50 µg/mL; for `CC(C)C[C@H]1C(=O)N[C@@H](Cc2c[nH]c3ccccc23)C(=O)N1OCc1ccccc1` [Compound A-35d, (3S,6S)-1-Benzyloxy-3-(indol-3-yl)methyl-6-isobutyl-piperazine-2,5-dione] it is 50 µg/mL; for `COn1c(CC(C)C)c(Cl)nc(Cc2c[nH]c3ccccc23)c1=O` [Compound A-45, 5-chloro-3-(indol-3-yl)methyl-6-isobutyl-1-methoxy-1,2-dihydropyrazin-2-one] it is 20 µg/mL.
Same read-out and setting: the figure for `COC(=O)n1cc(Cc2nc(Cl)c(CC(C)C)[n+]([O-])c2OC)c2ccccc21` [Compound A-48, 3-Chloro-2-isobutyl-5-[(1-methoxycarbonyl)indol-3-yl]methyl-6-methoxypyrazineyl-oxide] is 50 µg/mL.

Still in this experiment, the particulars now being: rat neutrocytes 5×10^5 cells/ml; FMLP 10^-6 M + cytochalasin B 5 μg/ml; 15 minutes; OD550.
For “6-(indol-3-yl)methyl-2-isobutyl-5-methyl-1,2-dihydropyrazin-3-one 4-oxide [Compound A-82a]”, the “50% inhibitory concentration (IC50), releasing of lysosome” value was determined as 20 µg/mL.

The subject of a further experiment is superoxide radicals (O2^-) released from the peritoneal macrophage cells of guinea pig. Nature of the experiment: Inhibitory effect against superoxide radicals (O2^-) released from the peritoneal macrophage cells of guinea pig by stimulation. The class given is cell-based. The conditions noted are these: Cavia porcellus, Peritoneal macrophage cell; guinea pig peritoneal macrophages 2×10^6 cells/ml; FMLP 10^-7 M; cytochrome C reduction, OD550; 37° C.; read-out: 50% inhibitory concentration (IC50), superoxide radical release. How it is done: Inhibitory effect against superoxide radicals (O2^-) released from the peritoneal macrophage cells of guinea pig by stimulation
Mineral oil (15 ml) was intraperitoneally administered to a guinea pig, then 96 hours after the administration, the peritoneal macrophage cells were samples.
Superoxide redicals (O2^-) were determined by means of reduction of cytochrome C method according to the procedure described in an article by T. Matsumoto, K. Takeshige and S. Minakami: Biochemical and Biophysical Research Communications, Vol. 88, No. 3, pp. 974-979, (1979).
The peritoneal macrophage cells were added to make the final concentration of 2×10^6 cells/ml into 1 ml of 80 μM-cytochome C solution, and the test compound of indole derivative of the present invention was added thereto to make the test group sample. On the other hand, water was added in place of the indole derivative of the present invention to make the control group sample. Each of the test group sample and the control group sample was subjected to pure incubaiton at 37° C. for 1 minute.
As to the stimulating agent for releasing superoxide radicals (O2^-), FMLP (formylmethionyl leucyl phenylalanine) was added to make the final concentration thereof to 10^-7 M, to each of the test group sample and the control group sample. Then both samples were subjected to additional reaction by incubation for 1 minute.
Difference of the optical absorbances measured at 550 nm (OD550) of both test group and control group samples were determined, and the 50% inhibitory concentration (IC50) was obtained by calculating as the ratio of OD550 of the test group sample to that of the control group sample.
Regarding `COc1c(Cc2c[nH]c3ccc(Br)cc23)[nH]c(=O)c(CC(C)C)[n+]1[O-]` [Compound E-34c, 6-[(5-Bromo)indol-3-yl]methyl-3-isobutyl-5-methoxy-1,2-dihydropyrazin-2-one 4-oxide], the IC50 came to 5 µg/mL (≈ 12.3 µM).
With `COc1c(Cc2c[nH]c3c(C)cccc23)[nH]c(=O)c(CC(C)C)[n+]1[O-]` [Compound E-34f, 3-Isobutyl-5-methoxy-6-[(7-methyl)indol-3-yl]methyl-1,2-dihydropyrazin-2-one 4-oxide], the IC50 was found to be 7 µg/mL (≈ 20.5 µM).
`COc1ccc2[nH]cc(Cc3[nH]c(=O)c(CC(C)C)[n+]([O-])c3OC)c2c1` [Compound E-34h, 3-Isobutyl-5-methoxy-6-[(5-methoxy)indol-3-yl]methyl-1,2-dihydropyrazin-2-one 4-oxide]: the IC50 amounted to 5 µg/mL (≈ 14 µM).
Same read-out and setting: the figure for `COc1c(Cc2c[nH]c3ccc(O)cc23)[nH]c(=O)c(CC(C)C)[n+]1[O-]` [Compound E-34j, 6-[(5-Hydroxy)indol-3-yl]methyl-3-isobutyl-5-methoxy-1,2-dihydropyrazin-2-one 4-oxide] is 10 µg/mL (≈ 29.1 µM); for `COc1ccc2[nH]c(C)c(Cc3[nH]c(=O)c(CC(C)C)[n+]([O-])c3OC)c2c1` [Compound E-34k, 3-Isobutyl-5-methoxy-6-[(5-methoxy-2-methyl)indol-3-yl]methyl-1,2-dihydropyrazin-2-one 4-oxide] it is 2 µg/mL (≈ 5.38 µM).
Still for that read-out and setting: the same measure for `COc1c(Cn2ccc3ccccc32)[nH]c(=O)c(CC(C)C)[n+]1[O-]` [Compound E-36p, 6-(Indol-1-yl)methyl-3-isobutyl-5-methoxy-1,2-dihydropyrazin-2-one 4-oxide]: 8 µg/mL (≈ 24.4 µM); for `CC(C)Cc1c(=O)[nH]c(Cc2c[nH]c3ccccc23)c(OC(C)C)[n+]1[O-]` [Compound E-46a, 6-(Indol-3-yl)methyl-3-isobutyl-5-isopropoxy-1,2-dihydroipyrazin-2-one 4-oxide]: 3 µg/mL (≈ 8.44 µM); for `CC(C)Cc1c(=O)[nH]c(Cc2c[nH]c3ccccc23)c(Cl)[n+]1[O-]` [Compound E-57a, 5-Chloro-6-(indol-3-yl)methyl-3-isobutyl-1,2-dihydropyrazin-2-one 4-oxide]: 10 µg/mL (≈ 30.1 µM).
Still for that read-out and setting: the same measure for `CSc1c(Cc2c[nH]c3ccccc23)[nH]c(=O)c(CC(C)C)[n+]1[O-]` [Compound E-57c, 6-(Indol-3-yl)methyl-3-isobutyl-5-methylthio-1,2-dihydropyrazin-2-one 4-oxide]: 10 µg/mL (≈ 29.1 µM); for `CC(C)Cc1c(=O)[nH]c(Cc2c[nH]c3ccccc23)c(S(C)(=O)=O)[n+]1[O-]` [Compound E-57d, 6-(Indol-3-yl)methyl-3-isobutyl-5-methylsulfonyl-1,2-dihydropyrazin-2-one 4-oxide]: 10 µg/mL (≈ 26.6 µM).
As for `CC(C)Cc1c(=O)[nH]c(Cc2c[nH]c3ccccc23)c([S+](C)[O-])[n+]1[O-]` (stereo not drawn) [Compound E-58, 6-(Indol-3-yl)methyl-3-isobutyl-5-methylsulfinyl-1,2-dihydropyrazin-2-one 4-oxide], the IC50 is 6 µg/mL (≈ 16.7 µM).
Same read-out and setting: the same measure for `COc1c(Cc2cn(C)c3ccccc23)nc(OCc2ccccc2)c(CC(C)C)[n+]1[O-]` [Compound E-67a, 3-Benzyloxy-2-isobutyl-5-[(1-methyl)indol-3-yl]methyl-6-methoxypyrazine 1-oxide]: 10 µg/mL (≈ 23.2 µM); for `CC(C)C[C@@H]1C(=O)N(C)[C@@H](Cc2c[nH]c3ccccc23)C(=O)N1O` [Compound E-72a, (3S,6R)-1-Hydroxy-3-(indol-3-yl)methyl-6-isobutyl-4-methylpiperazine-2,5-dione]: 0.8 µg/mL (≈ 2.43 µM).
On the same count and under the same terms, the figure for `CC(C)C[C@@H]1C(=O)N(C)[C@@H](Cc2cn(C)c3ccccc23)C(=O)N1O` [Compound E-73a, (3S,6R)-1-Hydroxy-6-isobutyl-4-methyl-3-[(1-methyl)indol-3-yl]methylpiperazine-2,5-dione] is 2 µg/mL (≈ 5.82 µM).

(Values after patent publication US5238938A, “Indole derivatives” (Otsuka Pharmaceutical Co., Ltd., priority 1989, dated 1993).)
